From ChEMBL document CHEMBL1122992, “Phosphorus-nitrogen compounds. 26. Phosphaminimides. 2. 2,2'-Phosphinylidenebis(1,1,1-trimethylhydrazinium) iodide inner salts as agents affecting ganglionic transmission” (J Med Chem, 1985)

Tested on: Rattus norvegicus
Assay: LD50 values was measured by using probit analysis method in rats
Assay type: ADME, organism-based
Conditions: in vivo

C[N+](C)(C)[N-]P(=O)(N[N+](C)(C)C)c1ccccc1.[I-] (stereo unspecified)
LD50: ~ 15 ug ml-1

C[N+](C)(C)NP(=O)(N[N+](C)(C)C)Oc1ccccc1.[I-].[I-]
LD50: 2.37 µg/mL

C[N+](C)(C)N=P([O-])(N[N+](C)(C)C)c1ccccc1.[I-] (stereo unspecified)
LD50: ~ 15 ug ml-1

C[N+](C)(C)NP(=O)(N[N+](C)(C)C)c1ccccc1.[I-].[I-]
LD50: 2.15 µg/mL

C[N+](C)(C)N=P([O-])(N[N+](C)(C)C)Oc1ccccc1.[I-] (stereo unspecified)
LD50: ~ 15 ug ml-1

C[N+](C)(C)[N-]P(=O)(N[N+](C)(C)C)Oc1ccccc1.[I-] (stereo unspecified)
LD50: 15 µg/mL
